Assay results reported in PubChem BioAssay AID180 (DTP/NCI, 2004).
“And” between values parts separate entries of the source, which are not always exact repeats. Identical values can stand only once.

Test system: BDF1 mice, Adenocarcinoma 755 s.c., tumor weight T/C
Assay: NCI In Vivo Anticancer Drug Screen. Data for tumor model Adenocarcinoma 755 (subcutaneous) in B6D2F1 (BDF1) mice
Conditions: endpoint: mean tumor weight, schedule: Q01DX011 (ip), higher = larger tumour
In short: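 Readout: T/C, i.e. treated-group measurement over vehicle-control measurement. Endpoint is survival or tumor size in tumor-bearing mice given compound.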

[1] = dose: 15.0 mg/kg/injection, vehicle: carboxymethylcellulose (CMC)
[2] = dose: 30.0 mg/kg/injection, vehicle: carboxymethylcellulose (CMC)
[3] = dose: 100.0 mg/kg/injection, vehicle: carboxymethylcellulose (CMC)
[4] = dose: 15.0 mg/kg/injection, vehicle: methylcellulose (MC)
[5] = dose: 25.0 mg/kg/injection, vehicle: carboxymethylcellulose (CMC)
[6] = dose: 50.0 mg/kg/injection, vehicle: carboxymethylcellulose (CMC)
[7] = dose: 6.25 mg/kg/injection, vehicle: methylcellulose (MC)
[8] = dose: 12.5 mg/kg/injection, vehicle: methylcellulose (MC)
[9] = dose: 25.0 mg/kg/injection, vehicle: methylcellulose (MC)
[10] = dose: 50.0 mg/kg/injection, vehicle: methylcellulose (MC)
[11] = dose: 25.0 mg/kg/injection, vehicle: other
[12] = dose: 50.0 mg/kg/injection, vehicle: other
[13] = dose: 200.0 mg/kg/injection, vehicle: carboxymethylcellulose (CMC)
[14] = dose: 300.0 mg/kg/injection, vehicle: carboxymethylcellulose (CMC)
[15] = dose: 31.25 mg/kg/injection, vehicle: methylcellulose (MC)
[16] = dose: 125.0 mg/kg/injection, vehicle: methylcellulose (MC)

In the case of O=C1Cc2ccccc2C(=O)N1, the T/C (dose: 7.5 mg/kg/injection, vehicle: carboxymethylcellulose (CMC)) was 79 % of control, the T/C [1] was 104 % of control and the T/C [2] was 107 % of control. For the same molecule, the T/C (dose: 60.0 mg/kg/injection, vehicle: carboxymethylcellulose (CMC)) was 56 % of control.

In the case of CCc1c(CC(=O)O)c2cc(C)ccc2n1Cc1ccc(Cl)cc1, the T/C (dose: 20.0 mg/kg/injection, vehicle: carboxymethylcellulose (CMC)) was 87 % of control, the T/C (dose: 40.0 mg/kg/injection, vehicle: carboxymethylcellulose (CMC)) was 119 % of control and the T/C (dose: 80.0 mg/kg/injection, vehicle: carboxymethylcellulose (CMC)) was 97 % of control. The T/C [3] was 37 % of control.

For O=C(Nc1ccc(C2=NC3CCCCC3N2)cc1)c1cccc(C(=O)Nc2ccc(C3=NC4CCCCC4N3)cc2)c1 (centres undefined), the T/C [4] was 73 % of control, the T/C (dose: 30.0 mg/kg/injection, vehicle: methylcellulose (MC)) was 81 % of control and the T/C (dose: 60.0 mg/kg/injection, vehicle: methylcellulose (MC)) was 73 % of control. For the same molecule, the T/C (dose: 120.0 mg/kg/injection, vehicle: methylcellulose (MC)) was 59 % of control.

In the case of C=CCn1cnc2c(Cl)ncnc21, the T/C [5] was 10 % of control and the T/C [6] was 6 % of control.

CC(C)Cn1cnc2c(SC(C)C)nc(N)nc21 was tested, and the T/C [7] was 56 % of control, the T/C [8] was 19 % of control and the T/C [9] was 4 % of control. The T/C [10] was 1 % of control.

CCn1cnc2ncnc(SCc3ccccc3)c21 was tested, and the T/C (dose: 16.0 mg/kg/injection, vehicle: carboxymethylcellulose (CMC)) was 107 % of control, the T/C (dose: 31.0 mg/kg/injection, vehicle: carboxymethylcellulose (CMC)) was 89 % of control and the T/C (dose: 62.0 mg/kg/injection, vehicle: carboxymethylcellulose (CMC)) was 46 % of control.

CN(C)C1C(=O)C(C(=O)NCNC(CCS(C)=O)C(=O)O)=C(O)C2(O)C(=O)C3=C(O)c4c(O)cccc4C(C)(O)C3CC12 (centres undefined) was tested, and the T/C (dose: 200.0 mg/kg/injection, vehicle: saline) was 68 % of control.

With S=c1nc[nH]c2c1ncn2C1CCCCCC1 the T/C (dose: 125.0 mg/kg/injection, vehicle: carboxymethylcellulose (CMC)) was 65 % of control, the T/C (dose: 250.0 mg/kg/injection, vehicle: carboxymethylcellulose (CMC)) was 88 % of control and the T/C (dose: 500.0 mg/kg/injection, vehicle: carboxymethylcellulose (CMC)) was 87 % of control.

With CC(C)N(C(C)C)C(C)CCNc1c2ccccc2nc2cc(Cl)ccc12 (centres undefined) the T/C (dose: 3.0 mg/kg/injection, vehicle: methylcellulose (MC)) was 64 % of control, the T/C (dose: 6.0 mg/kg/injection, vehicle: methylcellulose (MC)) was 79 % of control and the T/C (dose: 12.0 mg/kg/injection, vehicle: methylcellulose (MC)) was 72 % of control.

With CC(=O)Nc1c(Cl)cc2c(c1Cl)Cc1cc([N+](=O)[O-])ccc1-2 the T/C (dose: 0.8 mg/kg/injection, vehicle: carboxymethylcellulose (CMC)) was 32 % of control, the T/C (dose: 1.6 mg/kg/injection, vehicle: carboxymethylcellulose (CMC)) was 47 % of control and the T/C (dose: 3.0 mg/kg/injection, vehicle: other) was 61 % of control. For the same molecule, the T/C (dose: 3.12 mg/kg/injection, vehicle: carboxymethylcellulose (CMC)) was 25 % of control, the T/C (dose: 6.0 mg/kg/injection, vehicle: other) was 87 % of control and the T/C (dose: 6.25 mg/kg/injection, vehicle: carboxymethylcellulose (CMC)) was 31 % of control and 33 % of control. The T/C (dose: 6.25 mg/kg/injection, vehicle: other) was 59 % of control, the T/C (dose: 12.5 mg/kg/injection, vehicle: carboxymethylcellulose (CMC)) was 15 % of control and the T/C (dose: 12.5 mg/kg/injection, vehicle: other) was 22 % of control and 35 % of control. For the same molecule, the T/C [5] was 9 % of control, the T/C [11] was 24 % of control and 45 % of control and the T/C [6] was 9 % of control. For the same molecule, the T/C [12] was 31 % of control and 35 % of control, the T/C [3] was 8 % of control and the T/C (dose: 100.0 mg/kg/injection, vehicle: other) was 30 % of control. The T/C [13] was 6 % of control and 25 % of control, the T/C (dose: 200.0 mg/kg/injection, vehicle: other) was 26 % of control and the T/C [14] was 6 % of control. The T/C (dose: 400.0 mg/kg/injection, vehicle: other) was 20 % of control.

In the case of Cc1ccc(CSc2nc(N)nc3nc[nH]c23)cc1C, the T/C [15] was 37 % of control, the T/C (dose: 62.5 mg/kg/injection, vehicle: methylcellulose (MC)) was 33 % of control and the T/C [16] was 15 % of control. The T/C (dose: 250.0 mg/kg/injection, vehicle: methylcellulose (MC)) was 1 % of control and 7 % of control and the T/C (dose: 350.0 mg/kg/injection, vehicle: methylcellulose (MC)) was 5 % of control.

In the case of CCCN1CCC(=O)NC1=S, the T/C [4] was 81 % of control, the T/C (dose: 31.0 mg/kg/injection, vehicle: methylcellulose (MC)) was 64 % of control and the T/C (dose: 62.0 mg/kg/injection, vehicle: methylcellulose (MC)) was 74 % of control. For the same molecule, the T/C [16] was 93 % of control.

In the case of CC(=O)OCC1OC(n2cnc3c(N)ncnc32)CC1OC(C)=O (centres undefined), the T/C [2] was 55 % of control and 68 % of control, the T/C (dose: 120.0 mg/kg/injection, vehicle: carboxymethylcellulose (CMC)) was 97 % of control and 111 % of control and the T/C (dose: 240.0 mg/kg/injection, vehicle: carboxymethylcellulose (CMC)) was 108 % of control and 109 % of control.

For [N-]=[N+]=C1N=CN=C1c1ncn[nH]1, the T/C [5] was 103 % of control.

With CCCCn1cnc2c(SCc3ccccc3)nc(N)nc21 the T/C (dose: 7.81 mg/kg/injection, vehicle: methylcellulose (MC)) was 31 % of control, the T/C (dose: 15.62 mg/kg/injection, vehicle: methylcellulose (MC)) was 2 % of control and the T/C [15] was 1 % of control.

In the case of CCC(C)Sc1nc(N)nc2c1ncn2C1OC(CO)C(O)C1O (centres undefined), the T/C [13] was 2 % of control and the T/C [14] was 2 % of control.

With Ic1ncnc2c1ncn2C1CCCO1 (centres undefined) the T/C [6] was 94 % of control and the T/C [3] was 84 % of control.

With c1cncc(CSc2ncnc3nc[nH]c23)c1 the T/C (dose: 0.78 mg/kg/injection, vehicle: methylcellulose (MC)) was 79 % of control, the T/C (dose: 1.55 mg/kg/injection, vehicle: methylcellulose (MC)) was 40 % of control and the T/C (dose: 3.1 mg/kg/injection, vehicle: methylcellulose (MC)) was 61 % of control. For the same molecule, the T/C [7] was 8 % of control and 20 % of control, the T/C [8] was 4 % of control and the T/C [9] was 2 % of control. For the same molecule, the T/C [10] was 2 % of control.

For CCC1OCCN1C(C)C (centres undefined), the T/C (dose: 12.0 mg/kg/injection, vehicle: other) was 118 % of control, the T/C [5] was 57 % of control and the T/C [11] was 109 % of control. The T/C (dose: 25.0 mg/kg/injection, vehicle: saline) was 84 % of control, the T/C [6] was 33 % of control and the T/C [12] was 223 % of control. For the same molecule, the T/C (dose: 50.0 mg/kg/injection, vehicle: saline) was 29 % of control.

COc1cc(C(=O)[O][Hg][CH2]C2CC(O)CC([CH2][Hg][O]C(=O)c3cc(OC)c(OC)c(OC)c3)O2)cc(OC)c1OC (centres undefined) was tested, and the T/C [5] was 61 % of control.

CCCCn1cnc2c([N+](C)(C)C)ncnc21 was tested, and the T/C (dose: 3.75 mg/kg/injection, vehicle: carboxymethylcellulose (CMC)) was 66 % of control and the T/C [1] was 33 % of control and 38 % of control.
